These results are taken from US20240400604A1, “NUCLEOSIDE TRIPHOSPHATE PHOTOAFFINITY PROBE, METHOD FOR PREPARING SAME, AND APPLICATIONS THEREOF” (SHANDONG UNIVERSITY, priority 2023, published 2024).

In assay [1] the test system is ATP-binding proteins in HEK 293T cell lysates. The assay is described as follows: Proteomic LC-MS/MS (LFQ) analysis of HEK 293T cell lysates labeled with the ATP-N probe, ATP competition. More on the design: species or system human. As for the experimental part:
(§1) 1 mg of cell lysate was labeled with 10 μM ATP-N probe. The subsequent steps were the same as in Section 1.3 of Example 3.
(§2) The C18 pre-column (Thermo Fisher, 164564-CMD, 100 μm×2 cm) and analytical column (Thermo Fisher, 164941, 75 μm×25 cm) used in the LC-MS/MS analysis were commercially available. The liquid chromatography (Vanquish Neo, Thermo Fisher) settings were as follows: Solvent A was 98% H2O with 0.1% FA, and Solvent B was 98% ACN with 0.1% FA. The flow rate was 300 nL/min, with the elution gradient as follows: 0 minutes, 2% B; 5 minutes, 26% B; 127 minutes, 36% B; 137 minutes, 72% B; 142 minutes, 80% B; and 143-153 minutes, 80% B. The mass spectrometer (Orbitrap Exploris 480, Thermo Fisher) settings were: full MS scan in positive ion mode, electrospray ion source voltage 1.9 kV, ion transfer tube temperature 320° C., scan m/z range 350-1500, resolution of 120000, AGC target 300%, maximum injection time 25 ms. For dd-MS^2, resolution was 15000, AGC target 50%, maximum injection time was automatically selected, and the cycle time for MS scanning was set to 3 s. DDA mode was used for data acquisition and the data collection time was 0-142 minutes.
The obtained MS raw files were analyzed using Proteome Discoverer 2.5 software, and searched against the Uniprot human protein database (as of November 2022, total proteins: 20401). Enzyme specificity was set to trypsin, cysteine carbamidomethylation was set as a fixed modification, and methionine oxidation and N-terminal acetylation were set as variable modifications.
HEK 293T cell lysates were labeled with 10 μM ATP-N probe. Labeled proteins were enriched with streptavidin beads, and digested with trypsin to prepare peptide samples for LC-MS/MS analysis. Adding 100 μM ATP as the competitor during probe labeling, the labeling of ATP-binding proteins would be interfered. Compared with the probe-labeling group without competitors, more specific ATP-binding proteins could be identified with label-free quantitative (LFQ) analysis.

For assay [2], the target named is T1, VRK1 (Homo sapiens, UniProt Q99986).
T1 construct: in the samples of HEK 293T cell lysates labeled with the ATP-N probe; endogenous in cells; host or cells: HEK 293T cell lysate
T1 sequence (Q99986 1-396): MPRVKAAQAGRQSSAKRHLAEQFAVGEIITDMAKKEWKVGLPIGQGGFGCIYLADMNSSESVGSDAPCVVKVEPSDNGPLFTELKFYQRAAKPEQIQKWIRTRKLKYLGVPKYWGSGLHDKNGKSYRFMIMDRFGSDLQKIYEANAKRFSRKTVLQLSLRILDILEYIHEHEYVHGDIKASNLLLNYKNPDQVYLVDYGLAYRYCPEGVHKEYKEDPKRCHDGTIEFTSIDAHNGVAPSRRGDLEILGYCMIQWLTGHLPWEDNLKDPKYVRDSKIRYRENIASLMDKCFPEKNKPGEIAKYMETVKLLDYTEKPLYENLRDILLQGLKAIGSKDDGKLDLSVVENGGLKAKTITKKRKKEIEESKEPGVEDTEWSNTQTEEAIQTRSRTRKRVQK
The assay is described as follows: Identification of ATP-N probe-modified site by LC-MS/MS. The settings on record: close to ATP-binding pocket, FIG. 26b. As for the experimental part:
as §1, §2
(§3) The obtained MS raw files were analyzed using Proteome Discoverer 2.5 software, and searched against the Uniprot human protein database (as of November 2022, total proteins: 20401). […]

Assay [3] concerns the target T2, N-acetylglucosamine kinase (NAGK) (Homo sapiens, UniProt Q9UJ70).
T2 construct: in the samples of HEK 293T cell lysates labeled with the ATP-N probe; endogenous in cells; host or cells: HEK 293T cell lysate
The description is as above. The settings on record: near ATP-binding pocket, FIG. 26a. As for the experimental part:
as §1, §2, §3

In assay [4] the test system is ATP-binding proteins in HEK 293T cell lysates. The assay is described as follows: In-gel fluorescence imaging of HEK 293T cell lysates labeled with the ATP-N probe. The settings on record: FIG. 23a, in-gel fluorescence.
In assay [5] the test system is ATP-binding proteins, including kinases. The assay is described as follows: Staurosporine competitive ATP-N probe labeling of cell lysates, LC-MS/MS. More on the design: species or system human. The settings on record: staurosporine at 1×, 10×, 20× concentration of the ATP-N probe; one biological replicate. On the procedure: The preparation of mass spectrometry samples was the same as in Section 1.3 of Example 7, except that ATP was replaced with different concentrations of staurosporine.
Prior to probe labeling, cell lysates were pre-incubated on ice with staurosporine at 1×, 10×, and 20× concentration of the ATP-N probe, and compared with the control group without staurosporine treatment. Potential target proteins of kinase inhibitors were screened based on the abundance ratio between the competition group and the control group through LC-MS/MS analysis. Theoretically, as the concentration of the inhibitor increases, the labeling efficiency of its target proteins should gradually decrease. Therefore, proteins were screened based on their abundance ratios ([…]), identifying proteins whose detected abundance decreased with increasing inhibitor concentrations. Proteins with lower confidence were filtered out, leaving proteins that met the criteria for further analysis. Most proteins with reduced labeling efficiency after staurosporine treatment were ATP-binding proteins, including kinases, and this trend increased with higher inhibitor concentrations. […] Since the data presented in this example represent only one biological replicate, there may be some errors. Typically, using the average values and p-values from three biological replicates would yield more reliable results.

Where [6] appears, read: GO-MF analysis of screened proteins.

T2 sequence (Q9UJ70 whole entry): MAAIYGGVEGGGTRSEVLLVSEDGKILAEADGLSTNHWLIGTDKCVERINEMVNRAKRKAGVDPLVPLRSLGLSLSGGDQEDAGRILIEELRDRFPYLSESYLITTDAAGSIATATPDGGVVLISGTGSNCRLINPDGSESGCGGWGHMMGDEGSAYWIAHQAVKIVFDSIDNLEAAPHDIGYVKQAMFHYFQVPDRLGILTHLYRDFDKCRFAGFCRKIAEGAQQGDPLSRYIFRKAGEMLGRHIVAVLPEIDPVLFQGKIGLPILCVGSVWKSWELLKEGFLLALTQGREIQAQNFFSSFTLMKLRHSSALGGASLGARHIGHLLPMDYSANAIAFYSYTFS

Take `C#CCCC1(CCNP(=O)(O)OP(=O)(O)OP(=O)(O)OC[C@H]2O[C@@H](n3cnc4c(N)ncnc43)C(O)[C@H]2O)N=N1` (stereo partly drawn) [ATP-N probe]: the “proteins with significantly decreased intensity in the ATP competition group” value in assay [1] (10 μM probe, 100 μM ATP, all three replicates, ratio>2, p-value<0.05) was “More than 160”. Moreover, in assay [1] (setting [6]), the “of these, kinases” value is “around 78”; the “of these, previously annotated ATP-binding proteins” value is “approximately 129”; the “share of annotated ATP-binding proteins among all screened proteins” value is recorded as “over 80%”. Besides, the “proteins with significantly decreased intensity in the competition group, probe-modified peptides” value in assay [1] (quantitative analysis of probe-modified peptides, all three replicates, ratio>2, p-value<0.05) was “About 44”. Further, the probe-labeled residue result in assay [2] is on record as “Glu73”. In assay [3], the probe-modified residue result was “Glu16”. Moreover, the “lowest probe concentration showing clear fluorescent bands” value in assay [4] is 1 µM.

Consider `CN[C@@H]1C[C@H]2O[C@@](C)([C@@H]1OC)n1c3ccccc3c3c4c(c5c6ccccc6n2c5c31)C(=O)NC4` [staurosporine, Staurosporine], for which the “proteins with significantly reduced ATP-N probe labeling in the competition group” value in assay [5] was “several known staurosporine targets were identified”.
